These results are taken from ChEMBL document CHEMBL1201862, “PubChem BioAssay data set” (2004).

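Grown in 96-well plates, cells were treated for 48 hours with each compound at five concentrations. Insufficient inhibition: endpoint recorded as highest concentration tested. GI50: concentration for 50% inhibition of growth.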 Active and inactive are the calls of the source. Rule as the data show it: active = GI50 up to about 1.1 µM and inactive = higher. Bounds are passed on as bounds.

Among the test systems are PC-3; Hs-578T; Malme-3M; SN12C; UO-31; NCI/ADR-RES; MDA-MB-231; NCI-H522; A549; IGROV-1; HCT-116; HCC 2998; CCRF-CEM; NCI-H460; OVCAR-4; SF-268; 786-0; SNB-19; HOP-62; MDA-MB-435.
Holding throughout (assay): NCI tumour cell line growth inhibition, 48 h

Take `CCCC(=O)OCC(COC(=O)CCC)OC(=O)CCC` [TRIBUTYRIN]: the GI50 in the test with PC-3 is 99.3 µM (inactive); with Hs-578T, 57.9 µM (inactive); in the test with Malme-3M, 41.2 µM (inactive); with SN12C, > 100 µM (inactive); in the test on UO-31 it was 34.4 µM (inactive); in the test with NCI/ADR-RES it was 20.1 µM (inactive). The GI50 in the test on MDA-MB-231 is 45.2 µM (inactive); in the test on NCI-H522, 17.9 µM (inactive); in the test with A549 it was 96.6 µM (inactive); with IGROV-1 it was > 100 µM (inactive); in the test on HCT-116, 48.8 µM (inactive); with HCC 2998, > 100 µM (inactive). The GI50 is 46.1 µM (inactive) in the test with CCRF-CEM; 99.8 µM (inactive) in the test with NCI-H460; > 100 µM (inactive) in the test with OVCAR-4; > 100 µM (inactive) with SF-268; > 100 µM (inactive) in the test with 786-0; > 100 µM (inactive) in the test on SNB-19. The GI50 with HOP-62 was > 100 µM (inactive); with MDA-MB-435, 85.7 µM (inactive).

As for `C/C(Nc1ccc(F)cc1)=C1/CCOC1=O`, the GI50 was 46.5 µM (inactive) in the test on PC-3; > 100 µM (inactive) in the test with Hs-578T; > 100 µM (inactive) in the test with Malme-3M; > 100 µM (inactive) in the test with SN12C; 92.3 µM (inactive) in the test on UO-31; > 100 µM (inactive) in the test on NCI/ADR-RES. The GI50 in the test on MDA-MB-231 is > 100 µM (inactive); in the test on NCI-H522, > 100 µM (inactive); in the test on A549, 90.4 µM (inactive); in the test with IGROV-1 it was > 100 µM (inactive); in the test with HCT-116 it was > 100 µM (inactive); in the test with HCC 2998 it was 25.6 µM (inactive). Further, the GI50 in the test with CCRF-CEM, with NCI-H460, in the test with OVCAR-4, in the test on SF-268, in the test on 786-0 and with SNB-19 was > 100 µM (inactive) each time. Moreover, the GI50 with HOP-62 is > 100 µM (inactive); in the test on MDA-MB-435 it was 2.92 µM (inactive).

Take `CC(C)(C)OC(=O)NNCC(O)COc1ccccc1` (stereo not given): the GI50 in the test on PC-3, with Hs-578T, in the test on Malme-3M, in the test on SN12C, in the test with UO-31 and with NCI/ADR-RES was > 100 µM (inactive) throughout. Also, the GI50 in the test on MDA-MB-231, in the test on NCI-H522, in the test with A549, with IGROV-1, with HCT-116 and in the test with HCC 2998 was > 100 µM (inactive) in each case. Also, the GI50 in the test with CCRF-CEM, in the test on NCI-H460, in the test with OVCAR-4, with SF-268, with 786-0 and with SNB-19 was > 100 µM (inactive) in each case. The GI50 in the test on HOP-62 and in the test on MDA-MB-435 was > 100 µM (inactive) each time.

As for `C=C1C2C[C@@H]3O[C@H]4C[C@H]5O[C@@]6(C[C@@H]7O[C@]8(C[C@H](C)[C@@H]9O[C@@H]%10CC(CO)O[C@@H]%10C[C@@H]9O8)C[C@H](C)[C@@H]7O6)C[C@H]5O[C@H]4[C@H](C)[C@H]3OC(=O)C[C@H]3CC[C@@H]4OC5[C@H]6O[C@]7(CC[C@H]8CC(=C)[C@H](CC[C@@H](C[C@H]1C)O2)O8)CC6O[C@@H]5[C@@H](O7)[C@H]4O3` (stereo not given in full), the GI50 in the test on PC-3, with Hs-578T, in the test with Malme-3M, in the test with SN12C, in the test on UO-31 and in the test with NCI/ADR-RES was < 0.0001 µM (active) in each case. The GI50 in the test on MDA-MB-231, in the test on NCI-H522, with A549, in the test on IGROV-1, in the test with HCT-116 and in the test on HCC 2998 was < 0.0001 µM (active) each time. The GI50 with CCRF-CEM is < 0.0001 µM (active); with NCI-H460, < 0.0001 µM (active); in the test on OVCAR-4 it was > 0.635 µM (active); in the test with SF-268, < 0.0001 µM (active); with 786-0 it was < 0.0001 µM (active); with SNB-19, < 0.0001 µM (active). For the same molecule, the GI50 in the test with HOP-62 and with MDA-MB-435 was < 0.0001 µM (active) each time.

Consider `CCCCCNc1nonc1N`, for which the GI50 in the test with PC-3 was > 100 µM (inactive); with Hs-578T, > 72.8 µM (inactive); in the test on Malme-3M, > 100 µM (inactive); in the test on SN12C, > 100 µM (inactive); in the test with UO-31, > 100 µM (inactive); in the test on NCI/ADR-RES, > 100 µM (inactive). Moreover, the GI50 in the test with MDA-MB-231, in the test with NCI-H522, with A549, with IGROV-1, in the test on HCT-116 and in the test with HCC 2998 was > 100 µM (inactive) in each case. For the same molecule, the GI50 with CCRF-CEM was > 31.6 µM (inactive); in the test on NCI-H460 it was > 100 µM (inactive); in the test with OVCAR-4, > 88.3 µM (inactive); with SF-268, > 100 µM (inactive); in the test on 786-0, > 100 µM (inactive); in the test with SNB-19 it was > 100 µM (inactive). The GI50 with HOP-62 and with MDA-MB-435 was > 100 µM (inactive) in each case.

With `O=c1c2cnccc2cc2c3ccccc3ccn12`, the GI50 is 77.8 µM (inactive) in the test with PC-3; 71.8 µM (inactive) in the test with Hs-578T; 57.3 µM (inactive) in the test with Malme-3M; 61.2 µM (inactive) in the test on SN12C; 23.1 µM (inactive) in the test on UO-31; > 100 µM (inactive) in the test on NCI/ADR-RES. Moreover, the GI50 with MDA-MB-231 is > 100 µM (inactive); with NCI-H522 it was 45.6 µM (inactive); in the test with A549, 45.8 µM (inactive); in the test on IGROV-1, 6.15 µM (inactive); in the test on HCT-116 it was 31.8 µM (inactive); with HCC 2998, 53.7 µM (inactive). For the same molecule, the GI50 in the test on CCRF-CEM was 36.6 µM (inactive); in the test on NCI-H460 it was 5.78 µM (inactive); in the test on OVCAR-4, 50.4 µM (inactive); with SF-268, 86.1 µM (inactive); in the test with 786-0, 84.7 µM (inactive); with SNB-19, > 100 µM (inactive). For the same molecule, the GI50 in the test on HOP-62 was > 100 µM (inactive); in the test on MDA-MB-435 it was 97.3 µM (inactive).

With `c1ccc(COC[C@H]2C3OCC([C@H](OCc4ccccc4)[C@H]3OCc3ccccc3)N2Cc2ccccc2)cc1` (stereo not given in full), the GI50 in the test with PC-3 was 20.2 µM (inactive); in the test on Hs-578T, > 49.1 µM (inactive); with Malme-3M, 27.9 µM (inactive); in the test with SN12C, > 49 µM (inactive); in the test with UO-31, > 46.1 µM (inactive); in the test with NCI/ADR-RES, > 47.8 µM (inactive). Further, the GI50 in the test with MDA-MB-231 is > 49.2 µM (inactive); with NCI-H522 it was 13.9 µM (inactive); in the test on A549, > 54.2 µM (inactive); in the test on IGROV-1, 43 µM (inactive); in the test with HCT-116, 23.5 µM (inactive); in the test with HCC 2998 it was > 53 µM (inactive). The GI50 in the test with CCRF-CEM was 27.1 µM (inactive); with NCI-H460, > 56.4 µM (inactive); in the test with OVCAR-4, 40 µM (inactive); with SF-268, > 54.3 µM (inactive); in the test with 786-0, > 50.1 µM (inactive); in the test on SNB-19, > 49.3 µM (inactive). In addition, the GI50 in the test with HOP-62 and in the test with MDA-MB-435 was > 55.2 µM (inactive) in each case.

Regarding `COc1cc2cc(C(=O)N3C[C@H](CCl)c4c3cc(N)c3ccccc43)[nH]c2c(OC)c1OC`, the GI50 in the test on PC-3 was 0.0507 µM (active); with Hs-578T, 0.0127 µM (active); in the test with Malme-3M it was 0.005 µM (active); in the test with SN12C, 0.592 µM (active); with UO-31, 0.005 µM (active); with NCI/ADR-RES it was 0.00791 µM (active). Also, the GI50 is 3.36 µM (inactive) in the test with MDA-MB-231; 0.001 µM (active) in the test with NCI-H522; 1.3 µM (inactive) in the test with A549; 0.218 µM (active) with IGROV-1; 0.00695 µM (active) in the test with HCT-116; 1.93 µM (inactive) in the test with HCC 2998. In addition, the GI50 is 0.051 µM (active) with CCRF-CEM; 0.0239 µM (active) in the test on NCI-H460; > 10 µM (inactive) with OVCAR-4; 0.593 µM (active) in the test with SF-268; 5.11 µM (inactive) in the test on 786-0; 0.713 µM (active) with SNB-19. Moreover, the GI50 was 3.05 µM (inactive) in the test on HOP-62 and 0.00577 µM (active) with MDA-MB-435.
